Measurements as given in publication PMC6110851, “An Optimized MicroPET Imaging Method for the Distribution and Synergies of Natural Products” (Frontiers in Pharmacology, 2018).

Test system: NF-κB
Assay: NF-κB dual luciferase reporter assay in TNF-stimulated HEK 293 T cells
Format: cell-based
Settings: after decay of radioactivity, HEK 293T stimulated by TNF-α
Method: The separation process was repeated five times for use in the activity tests. […] After 48 h, radioactive elements had decayed, the residues were stored at 4°C for anti-inflammatory activity tests ([Dong et al., 2013]; [Qingxin et al., 2016]).
HEK 293 T cells were cultured in standard Dulbecco’s modified Eagle’s medium (DMEM; Hyclone) supplemented with 10% fetal bovine serum (FBS; Biological Industries). The cells were placed in 96-well plates at 37°C in an air-CO2 environment (95/5% v/v). Cells were grown to 80–90% confluence and incubated for 12 h in DMEM without FBS. Transfection (20 h) was performed according to the manufacturer’s instructions. HEK 293 T cells were pretreated with drugs 1 h prior to TNF-stimulation (5 ng/mL) for 6 h. Dex (10^-5mol/L) was used as a positive control for NF-κB inhibition. The NF-κB activity was assayed using dual luciferase reporter assay system (Promega) according to the manufacturer’s instructions ([Qingxin et al., 2016]). Antiinflammatory activity was calculated as the ratio of firefly luciferase activity to Renilla luciferase activity (internal control).

CC1(C)[C@@H](O)CC[C@]2(C)[C@H]3C(=O)C=C4[C@@H]5C[C@@](C)(C(=O)NCCCC[18F])CC[C@]5(C)CC[C@@]4(C)[C@]3(C)CC[C@@H]12 [[^18F]-GA, [^18F]-Glycyrrhetinic acid]
inhibition of NF-κB activity (high concentration): significant inhibition of NF-κB activity
anti-inflammatory activity (NF-κB reporter) (low concentration): weak anti-inflammatory activity
inhibition of NF-κB activity (medium concentration): significant inhibition of NF-κB activity
